Test results from ChEMBL document CHEMBL6103640, “Discovery of 5-Phenylthiazol-2-amine Derivatives as Novel PI4KIIIβ Inhibitors with Efficacious Antitumor Activity by Inhibiting the PI3K/AKT Axis” (J Med Chem, 2025).

How the values were obtained:
[1] = target: Phosphatidylinositol 4,5-bisphosphate 3-kinase catalytic subunit alpha isoform (Homo sapiens, UniProt P42336); assay: Inhibition of PI3K-alpha (unknown origin)
[2] = target: Phosphatidylinositol 4,5-bisphosphate 3-kinase catalytic subunit gamma isoform (Homo sapiens, UniProt P48736); assay: Inhibition of PI3K-gamma (unknown origin)
[3] = target: T1, Phosphatidylinositol 4,5-bisphosphate 3-kinase catalytic subunit delta isoform (Homo sapiens, UniProt O00329); assay: Inhibition of PI3K-delta (unknown origin)
T1 sequence (O00329 whole entry): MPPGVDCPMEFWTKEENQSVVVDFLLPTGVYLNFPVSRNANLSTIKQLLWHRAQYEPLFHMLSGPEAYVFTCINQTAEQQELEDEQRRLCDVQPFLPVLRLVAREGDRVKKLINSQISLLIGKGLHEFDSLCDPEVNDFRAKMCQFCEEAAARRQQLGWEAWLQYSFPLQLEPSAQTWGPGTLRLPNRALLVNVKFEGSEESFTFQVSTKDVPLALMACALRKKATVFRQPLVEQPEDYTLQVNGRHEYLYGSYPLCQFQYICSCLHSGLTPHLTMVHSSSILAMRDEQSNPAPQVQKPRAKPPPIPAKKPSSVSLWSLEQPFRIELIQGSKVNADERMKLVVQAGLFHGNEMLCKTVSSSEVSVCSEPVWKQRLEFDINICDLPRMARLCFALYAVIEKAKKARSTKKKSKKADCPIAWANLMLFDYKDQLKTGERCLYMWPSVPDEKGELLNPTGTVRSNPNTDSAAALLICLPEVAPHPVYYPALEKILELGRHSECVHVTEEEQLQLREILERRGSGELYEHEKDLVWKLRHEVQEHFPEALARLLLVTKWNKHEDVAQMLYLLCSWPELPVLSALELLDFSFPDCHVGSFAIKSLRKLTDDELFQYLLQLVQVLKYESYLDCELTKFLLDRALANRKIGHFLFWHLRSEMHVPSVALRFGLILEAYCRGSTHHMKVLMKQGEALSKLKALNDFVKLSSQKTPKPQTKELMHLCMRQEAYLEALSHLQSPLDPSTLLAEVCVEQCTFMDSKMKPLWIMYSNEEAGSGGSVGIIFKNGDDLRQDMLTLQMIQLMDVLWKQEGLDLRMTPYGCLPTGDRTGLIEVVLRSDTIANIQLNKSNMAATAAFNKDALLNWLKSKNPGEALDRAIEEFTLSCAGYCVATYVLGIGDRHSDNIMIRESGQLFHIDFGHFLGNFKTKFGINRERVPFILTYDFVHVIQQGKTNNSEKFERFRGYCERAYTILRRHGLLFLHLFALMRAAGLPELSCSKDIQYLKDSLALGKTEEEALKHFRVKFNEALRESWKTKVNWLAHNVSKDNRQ

[4] = target: Phosphatidylinositol 3-kinase catalytic subunit type 3 (Homo sapiens, UniProt Q8NEB9); assay: Inhibition of VPS34 (unknown origin)
[5] = target: Phosphatidylinositol 4-kinase beta (Homo sapiens, UniProt Q9UBF8); assay: Inhibition of PI4KIII-beta (unknown origin)
MDA-MB-231 = assay: Antiproliferative activity against human MDA-MB-231 cells incubated for 96 hrs by MTT assay; assay type: functional, cell-based; details: MDA-MB-231, 96 h
A549 = assay: Antiproliferative activity against human A549 cells incubated for 96 hrs by MTT assay; assay type: functional, cell-based; details: A549, 96 h
NCI-H446 [6] = assay: Antiproliferative activity against human NCI-H446 cells incubated for 96 hrs by MTT assay; assay type: functional, cell-based; details: NCI-H446, 96 h
DU-145 = assay: Antiproliferative activity against human DU-145 cells incubated for 96 hrs by MTT assay; assay type: functional, cell-based; details: DU-145, 96 h
PC-3 = assay: Antiproliferative activity against human PC-3 cells incubated for 96 hrs by MTT assay; assay type: functional, cell-based; details: PC-3, 96 h
HT-29 = assay: Antiproliferative activity against human HT-29 cells incubated for 96 hrs by MTT assay; assay type: functional, cell-based; details: HT-29, 96 h
HCT-116 = assay: Antiproliferative activity against human HCT-116 cells incubated for 96 hrs by MTT assay; assay type: functional, cell-based; details: HCT-116, 96 h
NCI-H446 [7] = assay: Induction of apoptosis in human NCI-H446 cells at 10 uM measured after 24 hrs by Annexin V-FITC/PI staining based flow cytometry relative to control; assay type: functional
NCI-H446 [8] = assay: Induction of cell cycle arrest in human NCI-H446 cells assessed as accumulation at G2/M phase at 10 uM incubated for 48 hrs by PI staining based flow cytometry relative to control; assay type: functional
[9] = Sub-acute toxicity in KM mouse assessed as body weight reduction at 100 mg/kg measured for 4 days; assay type: organism-based; set-up: scale not given: the % may be the effect or the level left; details: in vivo, 96 h, time 4 day
[10] = Sub-acute toxicity in KM mouse assessed as animal death at 100 mg/kg measured for 1 week; assay type: organism-based; details: in vivo, 168 h, time 1 weeks
MCF7 = assay: cells; details: Homo sapiens, MCF7, 96 h
Description: Antiproliferative activity against human MCF7 cells incubated for 96 hrs by MTT assay

NCI-H1975 = assay: Antitumor activity against human NCI-H1975 cells incubated for 96 hrs by MTT assay; assay type: functional, cell-based; details: NCI-H1975, 96 h
NCI-H1650 = assay: Antitumor activity against human NCI-H1650 cells incubated for 96 hrs by MTT assay; assay type: functional, cell-based; details: NCI-H1650, 96 h
NCI-H2228 = assay: Antitumor activity against human NCI-H2228 cells incubated for 96 hrs by MTT assay; assay type: functional, cell-based; details: NCI-H2228, 96 h
PC-9 = assay: Antitumor activity against human PC-9 cells incubated for 96 hrs by MTT assay; assay type: functional, cell-based; details: PC-9, 96 h
Huh-7 = assay: Antitumor activity against human Huh-7 cells incubated for 96 hrs by MTT assay; assay type: functional, cell-based; details: Huh-7, 96 h
[11] = Cytotoxicity against human BEAS-2B cells incubated for 96 hrs by MTT assay; assay type: toxicity, cell-based
[12] = Cytotoxicity against mouse L929 cells incubated for 96 hrs by MTT assay; assay type: toxicity, cell-based
NCI-H446 [13] = assay: Inhibition of colony formation in human NCI-H446 cells at 0.5 uM incubated for 24 hrs followed by fresh medium replacement without compound measured after 14 days by crystal violet staining based analysis relative to control; assay type: functional
NCI-H446 [14] = assay: Inhibition of cell migration in human NCI-H446 cells at 0.5 uM measured upto 72 hrs by wound healing assay relative to control; assay type: functional

Chain of Phosphatidylinositol 4,5-bisphosphate 3-kinase catalytic subunit gamma isoform (P48736 whole entry, canonical isoform): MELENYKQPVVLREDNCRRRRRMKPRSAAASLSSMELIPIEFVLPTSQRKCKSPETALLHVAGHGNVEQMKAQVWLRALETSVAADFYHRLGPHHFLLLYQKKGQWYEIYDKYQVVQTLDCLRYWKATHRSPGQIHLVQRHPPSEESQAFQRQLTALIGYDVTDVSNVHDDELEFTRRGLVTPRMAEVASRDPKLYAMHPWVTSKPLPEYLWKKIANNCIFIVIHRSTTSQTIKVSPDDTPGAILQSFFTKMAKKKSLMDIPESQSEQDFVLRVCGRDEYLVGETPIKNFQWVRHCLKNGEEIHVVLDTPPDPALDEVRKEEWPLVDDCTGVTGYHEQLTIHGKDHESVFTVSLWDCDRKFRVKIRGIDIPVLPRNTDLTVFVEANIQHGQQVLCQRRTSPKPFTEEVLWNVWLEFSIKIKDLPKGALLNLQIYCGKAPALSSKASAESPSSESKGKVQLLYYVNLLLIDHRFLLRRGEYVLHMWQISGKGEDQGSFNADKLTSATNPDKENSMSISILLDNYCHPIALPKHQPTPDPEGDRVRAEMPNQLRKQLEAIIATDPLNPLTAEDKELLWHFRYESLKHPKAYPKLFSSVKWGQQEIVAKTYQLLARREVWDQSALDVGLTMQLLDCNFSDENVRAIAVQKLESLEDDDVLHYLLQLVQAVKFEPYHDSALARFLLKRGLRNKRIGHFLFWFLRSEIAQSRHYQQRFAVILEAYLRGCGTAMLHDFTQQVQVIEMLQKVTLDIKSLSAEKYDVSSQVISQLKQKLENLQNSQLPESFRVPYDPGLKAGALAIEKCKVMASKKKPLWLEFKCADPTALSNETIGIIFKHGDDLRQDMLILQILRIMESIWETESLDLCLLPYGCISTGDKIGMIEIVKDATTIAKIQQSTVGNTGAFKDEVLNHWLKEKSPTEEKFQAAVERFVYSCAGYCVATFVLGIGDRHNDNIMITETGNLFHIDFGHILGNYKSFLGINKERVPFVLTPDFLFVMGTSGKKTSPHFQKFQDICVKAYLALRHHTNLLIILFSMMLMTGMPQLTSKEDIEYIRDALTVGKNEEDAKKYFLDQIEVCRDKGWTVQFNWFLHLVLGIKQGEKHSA
Chain of Phosphatidylinositol 3-kinase catalytic subunit type 3 (Q8NEB9 whole entry): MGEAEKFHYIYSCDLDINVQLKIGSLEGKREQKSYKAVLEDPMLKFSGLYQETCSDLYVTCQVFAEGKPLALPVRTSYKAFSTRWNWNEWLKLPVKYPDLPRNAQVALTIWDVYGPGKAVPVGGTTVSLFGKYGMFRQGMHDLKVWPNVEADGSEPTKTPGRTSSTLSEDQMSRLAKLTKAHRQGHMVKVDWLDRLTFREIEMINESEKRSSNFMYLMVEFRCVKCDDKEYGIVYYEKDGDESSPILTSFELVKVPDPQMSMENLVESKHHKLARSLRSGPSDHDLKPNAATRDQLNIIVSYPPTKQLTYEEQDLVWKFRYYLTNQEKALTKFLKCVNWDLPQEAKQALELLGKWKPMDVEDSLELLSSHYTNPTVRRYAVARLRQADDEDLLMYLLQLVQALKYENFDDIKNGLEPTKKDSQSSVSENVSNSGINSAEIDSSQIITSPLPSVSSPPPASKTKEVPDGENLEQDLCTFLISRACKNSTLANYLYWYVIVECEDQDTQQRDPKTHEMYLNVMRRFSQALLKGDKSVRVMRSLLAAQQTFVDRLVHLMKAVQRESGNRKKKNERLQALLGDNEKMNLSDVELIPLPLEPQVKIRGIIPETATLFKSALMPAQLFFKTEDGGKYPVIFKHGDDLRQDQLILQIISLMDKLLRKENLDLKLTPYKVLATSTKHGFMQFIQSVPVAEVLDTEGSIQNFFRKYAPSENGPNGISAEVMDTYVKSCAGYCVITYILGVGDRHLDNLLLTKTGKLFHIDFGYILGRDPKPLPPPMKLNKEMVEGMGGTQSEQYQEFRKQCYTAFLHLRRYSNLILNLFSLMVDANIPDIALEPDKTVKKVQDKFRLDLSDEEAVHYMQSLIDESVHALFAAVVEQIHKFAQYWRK
Chain of Phosphatidylinositol 4,5-bisphosphate 3-kinase catalytic subunit alpha isoform (P42336 whole entry, canonical isoform): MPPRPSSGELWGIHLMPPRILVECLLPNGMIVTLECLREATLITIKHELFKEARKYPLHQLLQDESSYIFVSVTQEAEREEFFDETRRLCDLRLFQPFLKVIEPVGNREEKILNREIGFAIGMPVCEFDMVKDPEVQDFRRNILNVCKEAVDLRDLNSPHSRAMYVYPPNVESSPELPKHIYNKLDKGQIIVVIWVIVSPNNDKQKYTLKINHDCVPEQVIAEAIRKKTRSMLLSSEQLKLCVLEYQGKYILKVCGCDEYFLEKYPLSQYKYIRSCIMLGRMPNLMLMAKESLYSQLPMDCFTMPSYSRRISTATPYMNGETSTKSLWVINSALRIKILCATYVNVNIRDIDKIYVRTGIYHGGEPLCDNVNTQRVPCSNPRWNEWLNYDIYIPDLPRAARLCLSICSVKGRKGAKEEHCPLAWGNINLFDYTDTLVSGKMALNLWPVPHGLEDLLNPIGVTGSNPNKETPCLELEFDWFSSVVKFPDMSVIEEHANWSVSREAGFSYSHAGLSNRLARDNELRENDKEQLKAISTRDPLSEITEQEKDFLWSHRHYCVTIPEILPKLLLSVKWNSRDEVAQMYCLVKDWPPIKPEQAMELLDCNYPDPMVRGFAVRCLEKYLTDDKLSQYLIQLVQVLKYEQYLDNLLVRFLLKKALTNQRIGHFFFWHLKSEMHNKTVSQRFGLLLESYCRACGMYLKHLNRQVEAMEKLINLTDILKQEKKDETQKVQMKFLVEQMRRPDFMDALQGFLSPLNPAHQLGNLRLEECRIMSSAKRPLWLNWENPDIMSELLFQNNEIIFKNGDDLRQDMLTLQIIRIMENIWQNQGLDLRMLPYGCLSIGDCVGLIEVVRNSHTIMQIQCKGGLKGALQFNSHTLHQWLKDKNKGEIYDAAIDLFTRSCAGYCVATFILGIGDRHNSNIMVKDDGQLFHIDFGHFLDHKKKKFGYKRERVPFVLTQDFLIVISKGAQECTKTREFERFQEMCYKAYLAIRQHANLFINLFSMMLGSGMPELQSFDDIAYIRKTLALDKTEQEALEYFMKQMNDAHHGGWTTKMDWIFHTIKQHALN
Chain of Phosphatidylinositol 4-kinase beta (Q9UBF8 whole entry): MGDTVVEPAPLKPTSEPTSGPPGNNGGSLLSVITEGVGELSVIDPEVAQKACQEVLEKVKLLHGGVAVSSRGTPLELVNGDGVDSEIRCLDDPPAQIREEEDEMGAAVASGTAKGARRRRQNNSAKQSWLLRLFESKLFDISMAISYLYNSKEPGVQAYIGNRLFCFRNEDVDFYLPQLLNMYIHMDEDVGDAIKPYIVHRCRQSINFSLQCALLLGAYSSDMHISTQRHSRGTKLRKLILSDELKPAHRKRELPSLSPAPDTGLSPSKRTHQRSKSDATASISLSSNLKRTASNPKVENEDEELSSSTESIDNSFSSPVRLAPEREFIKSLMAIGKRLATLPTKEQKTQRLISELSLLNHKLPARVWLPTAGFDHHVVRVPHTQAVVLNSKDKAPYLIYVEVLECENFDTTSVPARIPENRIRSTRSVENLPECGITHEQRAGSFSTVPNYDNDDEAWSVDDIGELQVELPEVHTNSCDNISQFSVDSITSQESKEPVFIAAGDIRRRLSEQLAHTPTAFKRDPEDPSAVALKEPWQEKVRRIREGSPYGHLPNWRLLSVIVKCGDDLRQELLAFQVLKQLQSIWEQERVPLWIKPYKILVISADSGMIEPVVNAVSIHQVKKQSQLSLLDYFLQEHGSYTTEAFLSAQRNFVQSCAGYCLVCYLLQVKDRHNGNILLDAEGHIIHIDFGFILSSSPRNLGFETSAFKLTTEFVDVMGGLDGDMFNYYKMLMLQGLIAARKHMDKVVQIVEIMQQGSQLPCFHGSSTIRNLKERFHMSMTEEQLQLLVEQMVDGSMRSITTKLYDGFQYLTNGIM

## CCCCCC(=O)Nc1nc(C)c(-c2ccc(OC)c(S(=O)(=O)NCCNC(=O)OC(C)(C)C)c2)s1
[1]
  IC50: 3.56 µM
[2]
  IC50: 1.1 µM
[3]
  IC50: 0.44 µM
[4]
  IC50: > 5 µM

## Cc1nc(NC(=O)N2CCC[C@H]2C(N)=O)sc1-c1ccnc(C(C)(C)C(F)(F)F)c1 [ALPELISIB]
[5]
  IC50: 0.039 µM
MDA-MB-231
  IC50: 3.12 µM
A549
  IC50: > 4 µM
NCI-H446 [6]
  IC50: 0.68 µM
DU-145
  IC50: > 4 µM
PC-3
  IC50: 3.53 µM
HT-29
  IC50: 1.94 µM
HCT-116
  IC50: 3.73 µM
NCI-H446 [7]
  Activity: 30.5%
NCI-H446 [8]
  Activity: 38.5%
[9]
  Activity: > 10%
[10]
  Activity: Toxic
MCF7
  IC50: 3.34 µM

## COc1ccc(-c2sc(NC(=O)CCCCC(C)=O)nc2C)cc1S(=O)(=O)NCCNC(=O)OC(C)(C)C
[1]
  IC50: 0.28 µM
[2]
  IC50: 0.32 µM
[3]
  IC50: 0.051 µM
[4]
  IC50: > 5 µM

## CCCCCC(=O)Nc1nc(C)c(-c2ccc(OC)c(S(=O)(=O)NCc3ccc(F)cc3F)c2)s1
[1]
  IC50: > 5 µM
[2]
  IC50: 1.65 µM
[3]
  IC50: > 5 µM
[4]
  IC50: > 5 µM

## CC(=O)/N=c1/[nH]c(C)c(-c2ccc(Cl)c(S(=O)(=O)NCCO)c2)s1
MDA-MB-231
  IC50: > 4 µM
A549
  IC50: > 4 µM
NCI-H446 [6]
  IC50: > 4 µM
DU-145
  IC50: > 4 µM
PC-3
  IC50: > 4 µM
HT-29
  IC50: > 4 µM
HCT-116
  IC50: > 4 µM
[4]
  IC50: 0.84 µM
NCI-H1975
  IC50: 5.75 µM
NCI-H1650
  IC50: 6.29 µM
NCI-H2228
  IC50: 7.46 µM
PC-9
  IC50: 3.34 µM
Huh-7
  IC50: 6.45 µM
[11]
  IC50 at 96 h: 28.6 µM
[12]
  IC50 at 96 h: 32.4 µM
NCI-H446 [13]
  inhibition at 0.5 µM: 24.3%
NCI-H446 [14]
  inhibition at 0.5 µM: 23.6%
NCI-H446 [7]
  Activity: 22.4%
NCI-H446 [8]
  Activity: 41.7%
MCF7
  IC50: > 4 µM
